This passage reports IC50, half-life and solubility results from patent EP4752152A1, “STEROID COMPOUND, AND PREPARATION METHOD THEREFOR AND USE THEREOF” (Cholesgen (Shanghai) Co.Ltd., priority 2023, dated 2025).

Each structure is given as a SMILES string. Values after ≈ are worked out from the molar mass of the structure shown. Where two headings read alike, the source gives them in different places.

The test system of series [1] is SREBP pathway. The experiment in a line: SREBP luciferase reporter gene system (SRE-luciferase assay). Type of series: cell-based, human. Particulars: Homo sapiens, Huh-7, 16 h, Huh-7/SRE-luc cells, sterol-deficient medium, 0.01-10 µM. In a few lines:
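Readout was SRE-driven luciferase normalised to GFP fluorescence in lysates of stably transfected Huh-7/SRE-luc hepatoma cells. Compounds (0.01, 0.03, 0.1, 0.3, 1.0, 3.0, 10 µM; DMSO control) were applied for 16 h in sterol-depleted medium with 2 µM lovastatin and 10 µM mevalonate; IC50 from variable-slope fit.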

Series [2] in a line: Metabolic stability experiment of mouse liver microsomes. It is filed as in vitro ADME. As to the method: PB solution (100 mM), MgCl2 solution (300 mM), NADPH solution (2.04 mM), and mouse liver microsome (SHQY catalog number: M1000, batch number: 2110330) solution (1.00 mg/mL) were prepared respectively. […] Then, 100 µL of mouse liver microsome solution was added to a 96-well sample plate. For the 0 min sample, acetonitrile solution containing the internal standard was first added; then, 2 µL of 100 µM working solution was added; followed by the addition of 98 µL of pre-warmed 2.04 mM NADPH at 37°C. For the 5 min, 15 min, 30 min, 45 min, and 60 min samples, 2 µL of 100 µM working solution was first added; followed by the addition of 98 µL of pre-warmed 2.04 mM NADPH at 37°C to initiate the reaction; upon reaching the respective time points, a solution of acetonitrile containing the internal standard was added to terminate the reaction. For the NCF60 sample, 2 µL of 100 µM working solution was first added; followed by the addition of 98 µL of pre-warmed PB at 37°C to initiate the reaction; upon reaching the respective time points, a solution of acetonitrile containing the internal standard was added to terminate the reaction. During the experiment, all samples were incubated in a 37°C water bath. All samples were shaken on an oscillator at 800 rpm for 10 min, then centrifuged at 3200 g for 20 min. The supernatant was aspirated, diluted with deionized water at the corresponding ratio, and analyzed by LC-MS/MS. The remaining percentage of the compound at each time point was obtained by dividing the peak area ratio of the compound at 5, 15, 30, 45, and 60 min by the peak area ratio at 0 min. The half-life (T1/2) of the compound was then calculated using Excel. Table 2: Mouse liver microsome stability results of compounds from some examples
(Liver microsomes are a subcellular fraction often used to study metabolism.)

Series [3] in a line: Solubility in fasted-state simulated intestinal fluid (FaSSIF). It is filed as physicochemical. The settings on record: FaSSIF, pH 6.5, fassif, kinetic from dmso stock, FaSSIF pH 6.5, 300 µM sample solution, room temperature. In a few lines:
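Compound from 10.0 mM DMSO stock added to FaSSIF (phosphate/NaCl buffer, pH 6.5) at 300 µM nominal, shaken 1 h at room temperature, 1000 rpm. After centrifugation, supernatant concentration quantified by LC-MS/MS.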

The test system of series [4] is Fatty Acid Synthase (FASN) gene. The experiment in a line: Inhibition of FASN gene expression (qPCR) in Huh-7 cells. Type of series: cell-based, human. The settings on record: Homo sapiens, Huh-7, 16 h, Huh-7 cells, starvation medium, 16 hours, qPCR, read-out: FASN IC50. Put shortly:
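IC50 derived by four-parameter fit of FASN expression inhibition versus DMSO, measured by RT-qPCR. Compound exposure lasted 16 h at five 3-fold concentrations from 3000 nM, applied to Huh-7 cells in sterol-depleting medium with 5% LPDS, 2 µM lovastatin and 10 µM mevalonate.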
A general note: Real-time PCR tracks product formation cycle by cycle.

For orientation: IC50 means the midpoint of a concentration-inhibition curve. As a reminder, the half-life is the time needed for the level to fall by half in the phase considered. The low end stands for rapid decline, the high end for slow decline. By solubility is commonly meant the concentration that dissolves in the medium under given conditions. Low values mean little dissolved substance, high ones much dissolved substance. Turning to `COc1cccc(F)c1C(O)CCC[C@@H](C)[C@H]1CC[C@H]2[C@H]3[C@H](CC[C@]12C)[C@@]1(C)CC[C@H](O)[C@H](O)[C@@H]1CC3(F)F` (stereo partly drawn) [Compound 49, (1R,3aS,3bS,5aR,6R,7S,9aR,9bS,11aR)-4,4-difluoro-1-[(2R)-6-(2-fluoro-6-methoxyphenyl)-6-hydroxyhexan-2-yl]-9a,11a-dimethylhexadecahydro-1H-cyclopenta[1,2-a]phenanthrene-6,7-diol], the IC50 is 0.06 µM in series [1] and 200 to 500 nM in series [4] (class symbols). The half-life at 1 µM in series [2] is 1.88 h. For the same compound, the concentration in solution in series [3] (solubility at 1 h) came to 281 µM (≈ 155 µg/mL).

For `COc1cc(F)cc(F)c1C(O)CCC[C@@H](C)[C@H]1CC[C@H]2[C@H]3[C@H](CC[C@]12C)[C@@]1(C)CC[C@H](O)[C@H](O)[C@@H]1CC3(F)F` (stereo partly drawn) [Compound 98, (1R,3aS,3bS,5aR,6R,7S,9aR,9bS,11aR)-1-[(2R)-6-(4,6-difluoro-2-methoxyphenyl)-6-hydroxyhexan-2-yl]-4,4-difluoro-9a,11a-dimethylhexadecahydro-1H-cyclopenta[1,2-a]phenanthrene-6,7-diol], the IC50 in series [1] is 0.095 µM; in series [4] (class symbols), < 200 nM. Further, the half-life at 1 µM in series [2] turned out to be 4.17 h. In addition, in series [3], the concentration in solution (solubility at 1 h) was 199 µM (≈ 114 µg/mL).

On to `COc1cccc(C(O)CCC[C@@H](C)[C@H]2CC[C@H]3[C@H]4[C@H](CC[C@]23C)[C@@]2(C)CC[C@H](O)[C@H](O)[C@@H]2CC4(F)F)c1F` (stereo partly drawn) [Compound 63, (1R,3aS,3bS,5aR,6R,7S,9aR,9bS,11aR)-4,4-difluoro-1-[(2R)-6-(2-fluoro-3-methoxyphenyl)-6-hydroxyhexan-2-yl]-9a,11a-dimethylhexadecahydro-1H-cyclopenta[1,2-a]phenanthrene-6,7-diol], for which the IC50 in series [1] was 0.121 µM; in series [4] (class symbols), < 200 nM. The half-life at 1 µM in series [2] was > 3.08 h. Besides, the concentration in solution in series [3] (solubility at 1 h) was 147 µM (≈ 81.1 µg/mL).

Regarding `COc1cc(F)ccc1[C@@H](O)CCC[C@@H](C)[C@H]1CC[C@H]2[C@H]3[C@H](CC[C@]12C)[C@@]1(C)CC[C@H](O)[C@H](O)[C@@H]1CC3(F)F` [Compound 140, (1R,3aS,3bS,5aR,6R,7S,9aR,9bS,11aR)-4,4-difluoro-1-[(2R,6S)-6-(4-fluoro-2-methoxyphenyl)-6-hydroxyhexan-2-yl]-9a,11a-dimethylhexadecahydro-1H-cyclopenta[1,2-a]phenanthrene-6,7-diol], the results for the IC50 in series [1] and in series [4] (class symbols) were 0.11 µM and < 200 nM, respectively. Moreover, in series [2], the half-life at 1 µM was 5.35 h. In addition, the concentration in solution in series [3] (solubility at 1 h) came to 178 µM (≈ 98.4 µg/mL).

Consider `COc1cc(F)ccc1[C@H](O)CCC[C@@H](C)[C@H]1CC[C@H]2[C@H]3[C@H](CC[C@]12C)[C@@]1(C)CC[C@H](O)[C@H](O)[C@@H]1CC3(F)F` [Compound 141, (1R,3aS,3bS,5aR,6R,7S,9aR,9bS,11aR)-4,4-difluoro-1-[(2R,6R)-6-(4-fluoro-2-methoxyphenyl)-6-hydroxyhexan-2-yl]-9a,11a-dimethylhexadecahydro-1H-cyclopenta[1,2-a]phenanthrene-6,7-diol], for which the IC50 in series [1] is 0.017 µM; in series [4] (class symbols), < 200 nM. The half-life at 1 µM in series [2] is 4.85 h. The same compound came in with a solubility at 1 h in series [3] of 150 µM (≈ 82.9 µg/mL).

Consider `COc1cccc(F)c1[C@H](O)CCC[C@@H](C)[C@H]1CC[C@H]2[C@H]3[C@H](CC[C@]12C)[C@@]1(C)CC[C@H](O)[C@H](O)[C@@H]1CC3(F)F` [Compound 128, (1R,3aS,3bS,5aR,6R,7S,9aR,9bS,11aR)-4,4-difluoro-1-[(2R,6R)-6-(2-fluoro-6-methoxyphenyl)-6-hydroxyhexan-2-yl]-9a,11a-dimethylhexadecahydro-1H-cyclopenta[1,2-a]phenanthrene-6,7-diol], for which the concentration for half-maximal inhibition (IC50) was 0.139 µM in series [1] and 200 to 500 nM in series [4] (class symbols). Also, the half-life at 1 µM in series [2] is > 3.1 h. In series [3], the concentration in solution (solubility at 1 h) was 199 µM (≈ 110 µg/mL).

For `COc1ccccc1C(O)CCC[C@@H](C)[C@H]1CC[C@H]2[C@H]3[C@H](CC[C@]12C)[C@@]1(C)CC[C@H](O)[C@H](O)[C@@H]1CC3(F)F` (stereo partly drawn) [Compound 37, (1R,3aS,3bS,5aR,6R,7S,9aR,9bS,11aR)-4,4-difluoro-1-[(2R)-6-hydroxy-6-(2-methoxyphenyl)hexan-2-yl]-9a,11a-dimethylhexadecahydro-1H-cyclopenta[1,2-a]phenanthrene-6,7-diol], the IC50 in series [1] is 0.03 µM; in series [4] (class symbols), 200 to 500 nM. This compound also displayed a half-life at 1 µM in series [2] of 2.19 h. In series [3], this compound had a solubility at 1 h of 207 µM (≈ 111 µg/mL).

`COc1cc(F)ccc1C(O)CCC[C@@H](C)[C@H]1CC[C@H]2[C@H]3[C@H](CC[C@]12C)[C@@]1(C)CC[C@H](O)[C@H](O)[C@@H]1CC3(F)F` (stereo partly drawn) [Compound 35, (1R,3aS,3bS,5aR,6R,7S,9aR,9bS,11aR)-4,4-difluoro-1-[(2R)-6-(4-fluoro-2-methoxyphenyl)-6-hydroxyhexan-2-yl]-9a,11a-dimethylhexadecahydro-1H-cyclopenta[1,2-a]phenanthrene-6,7-diol]: the IC50 was 0.051 µM in series [1] and 200 to 500 nM in series [4] (class symbols). In addition, the half-life at 1 µM in series [2] is > 3.1 h. The solubility at 1 h in series [3] is 160 µM (≈ 88.4 µg/mL).

Consider `C[C@H](CCCC(C)(C)O)[C@H]1CC[C@@]2(C)C3=C(CC[C@]12C)[C@@]1(C)CC[C@H](O)C(C)(C)[C@@H]1CC3` [Comparative compound 1, reference compound], for which the IC50 in series [1] was 0.293 µM; in series [4] (numeric value) it was 959 nM. In series [2], this compound returned a half-life at 1 µM of 0.131 h. This compound gave a solubility at 1 h in series [3] of 105 µM (≈ 46.7 µg/mL).

For the compound `COc1ncccc1C(O)CCC[C@@H](C)[C@H]1CC[C@H]2[C@H]3[C@H](CC[C@]12C)[C@@]1(C)CC[C@H](O)[C@H](O)[C@@H]1CC3(F)F` (stereo partly drawn) [Compound 81, (1R,3aS,3bS,5aR,6R,7S,9aR,9bS,11aR)-4,4-difluoro-1-[(2R)-6-(2-methoxypyridin-3-yl)-6-hydroxyhexan-2-yl]-9a,11a-dimethylhexadecahydro-1H-cyclopenta[1,2-a]phenanthrene-6,7-diol], the IC50 in series [1] was 0.11 µM; in series [4] (class symbols), < 200 nM. Besides, the half-life at 1 µM in series [2] stood at 1.91 h. This compound also yielded a solubility at 1 h in series [3] of 279 µM (≈ 150 µg/mL).

Consider `COc1nc(F)ccc1C(O)CCC[C@@H](C)[C@H]1CC[C@H]2[C@H]3[C@H](CC[C@]12C)[C@@]1(C)CC[C@H](O)[C@H](O)[C@@H]1CC3(F)F` (stereo partly drawn) [Compound 108, (1R,3aS,3bS,5aR,6R,7S,9aR,9bS,11aR)-4,4-difluoro-1-[(2R)-6-(6-fluoro-2-methoxypyridin-3-yl)-6-hydroxyhexan-2-yl]-9a,11a-dimethylhexadecahydro-1H-cyclopenta[1,2-a]phenanthrene-6,7-diol], for which the IC50 in series [1] is 0.0359 µM; in series [4] (class symbols) it was < 200 nM. In series [2], this compound registered a half-life at 1 µM of 3.08 h. Moreover, in series [3], the solubility at 1 h was 303 µM (≈ 168 µg/mL).

On to `COc1cccc(F)c1[C@@H](O)CCC[C@@H](C)[C@H]1CC[C@H]2[C@H]3[C@H](CC[C@]12C)[C@@]1(C)CC[C@H](O)[C@H](O)[C@@H]1CC3(F)F` [Compound 127, (1R,3aS,3bS,5aR,6R,7S,9aR,9bS,11aR)-4,4-difluoro-1-[(2R,6S)-6-(2-fluoro-6-methoxyphenyl)-6-hydroxyhexan-2-yl]-9a,11a-dimethylhexadecahydro-1H-cyclopenta[1,2-a]phenanthrene-6,7-diol], for which the IC50 in series [1] is 0.07 µM; in series [4] (class symbols) it was 200 to 500 nM. Further, the half-life at 1 µM in series [2] amounted to 1.87 h. The compound further displayed a solubility at 1 h in series [3] of 209 µM (≈ 116 µg/mL).

Regarding `C[C@H](CCCC(O)c1c(F)cccc1F)[C@H]1CC[C@H]2C3=C(F)C[C@H]4[C@@H](O)[C@@H](O)CC[C@]4(C)[C@H]3CC[C@]12C` (stereo partly drawn) [Compound 21, (1R,3aR,5aR,6R,7S,9aR,9bR,11aR)-1-[(2R)-6-(2,6-difluorophenyl)-6-hydroxyhexan-2-yl]-4-fluoro-9a,11a-dimethyl-2,3,3a,5,5a,6,7,8,9,9a,9b,10,11,11a-tetradecahydro-1H-cyclopenta[1,2-a]phenanthrene-6,7-diol], the IC50 in series [1] is 0.23 µM. In series [2], this compound yielded a half-life at 1 µM of 2.69 h. Also, the concentration in solution in series [3] (solubility at 1 h) came to 246 µM (≈ 128 µg/mL).
